The text below walks through data of patent US20260347399A1, “BRAIN PENETRATING PEPTIDES AND METHODS OF USE” (priority 2022, published 2026).

Ends that are not written are not given here.

The test system of one data set is rat CNS. The data set can be described thus: CVGTNCY peptide-phage biodistribution, rats. The following applies: peptide-phage i.v., 1 h. Type of data set: in vivo. Here is the method:
CVGTNCY (SEQ ID NO:2) peptide-phage or control phage were injected iv into mice, after one hour circulation animals were perfused with 20 ml PBS, organs were collected, weighed, and dropped to 1% NP40-LB solution. Organs were homogenized and titer of each tissue was determined. FAM-labeled peptides (2 mM of peptide in PBS) were injected intravenously and 3 hours later the animals were perfused with 20 mL of PBS. The organs were excised, snap-frozen in the vapor of liquid nitrogen, and stored at −80 °C. For confocal microscopy, the tissues were sectioned at 15 μm and stained with antibodies and DAPI.
To describe the utility of CVGTNCY (SEQ ID NO:2) peptide as a systemic CNS homing peptide, the biodistribution of CVGTNCY (SEQ ID NO:2) peptide-phage as well as peptide-functionalized AgNPs were analyzed in rodents. […] No significant difference between CVGTNCY (SEQ ID NO:2) and G7 titers was determined in the rest of the analyzed organs/tissues).

In the next data set the test system is 22 different cell-lines. Nature of the data set: CVGTNCY peptide-phage binding on cell lines. The conditions noted are these: +4 °C, 1 h; over control phage G7. Type of data set: cell-based, human or mouse. Here is the method: 22 different cell-lines derived from human or mouse tumors or normal tissues were used in the experiments (Table 4).
To evaluate the CVGTNCY (SEQ ID NO:2) peptide-phage binding on cell lines, the CVGTNCY (SEQ ID NO:2) peptide-phage and control G7 phage were incubated on attached cells (except NCH421k cells that grow as speroids) in DMEM-0.5% BSA for 1 hour at +4 °C. Thereafter, the cells were washed four times with DMEM-0.5% BSA and phage was released in 1% NP40-LB to determine the titer of the samples.
An in vitro proximity labeling method was planned to use for the identification of the CVGTNCY (SEQ ID NO:2) peptide receptor. To accomplish receptor search, binding of CVGTNCY (SEQ ID NO:2) peptide-phage on 22 different cell-lines isolated from various tumors and normal tissues was tested.

The test system of another data set is Reelin. The data set can be described thus: Peptide-phage binding on ELISA plate. On the set-up: species or system human. The method, then:
Reelin protein (#8546-MR-050; R&D Systems), NRP-1 b1b2 (wt and mutant) or 5% BSA was immobilized on Costar 96-Well ELISA plate (#3590, Corning Life Sciences, Tewksbury, MA, USA). The multiwell plates were coated with 20 μg/ml recombinant protein in 100 μl of PBS overnight at +4 °C, followed by blocking with 1% bovine serum albumin (BSA) in PBS overnight at +4 °C. The phage (5×10^8 pfu in 100 μl of PBS-BSA) was incubated overnight at +4 °C, followed by 6 washes with PBS containing 1% BSA and 0.1% Tween-20 (washing buffer) to remove background phages. BLT5615 OD600=0.5 containing 2 mM IPTG was used to recover the phages and determine the titer of samples.
Next, an affinity chromatography was performed to identify a receptor of the CVGTNCY (SEQ ID NO:2), and selected a receptor candidate, which is a secreted extracellular matrix protein Reelin. CVGTNCY (SEQ ID NO:2) binding to Reelin protein was tested by cell free method on ELISA plate. Recombinant human Reelin protein (Ser1221-Gln2666; 163 kDa) was used to coat the ELISA plate and the CVGTNCY (SEQ ID NO:2) peptide-phage was allowed to bind to it. After several washes, the titer of the experiment was determined to rate on the binding efficiency.
Reelin was identified from affinity chromatography proteomics data. […] The binding efficiency was evaluated based on the titer (PFU/ml) of each sample. […]

In a further data set the test system is mouse brain. Nature of the data set: Peptide-phage biodistribution after i.v. injection. Type of data set: in vivo. The method, then:
For titering-based biodistribution studies, nucleotide sequences coding for peptides of interest were cloned into T7 phage genomic DNA to be expressed on the phage surface as C-terminal fusions to capsid protein. The cloning was performed using complementary oligonucleotides, the phage clones were amplified, and purified as described in (Põšnograjeva, et al., 2022). 5×10^9 pfu of peptide-phage clone was injected i.v. into male Balb/C mice or 5×10^10 pfu of phage was injected into female Sprague-Dawley rats (n=3). 60 min later, the animals were anesthetized and perfused with PBS. The tissues were collected, homogenized, and the amount of phage in tissue lysates was determined by titering using E. coli strain BLT5615.
A complete listing of peptides that were identified from Ion Torrent high throughput sequencing from bio-panning Round 5 is set forth in Table 1B.
The peptide-phage was injected i.v. and following 1 h circulation, the mice were perfused, brain and control organs were collected and phage titer in each tissue was determined. Insertless T7 phage was used as a negative control and a phage displaying BBB penetrating peptide Angiopep-2 (TFFYGGSRGKRNNFKTEEY; SEQ ID NO:97) was used for comparison. Cerepep phage achieved approximately 300-fold higher accumulation in mouse brain compared to control and Angiopep-2 phages (FIG. 2A; Peptide-phage accumulation in the brain. 5×10^9 pfu of phage was injected i.v. and following 1 h circulation mice were perfused with PBS. The amount of phage accumulated in the brain was determined by titering). To assess the brain distribution of […] (SEQ ID NO:9), the mouse brain was dissected to separate the olfactory bulbs, cerebellum, brain stem and the hemispheres before determining the titer in the tissue.
The brain selectivity of SRRVISRAKLAAAL (SEQ ID NO:9) phage following a systemic administration was studied in mice and rats by determining the titer of […] (SEQ ID NO:9) and control phage in multiple control tissues.

For the next data set, the system named is P3 stem cells. The data set can be described thus: In vitro phage binding to cells. The conditions noted are these: 4 °C, 1 h, highest ratio. Type of data set: cell-based, human. The method, then: (§1) To assess the binding of Cerepep phage, the cells were cultured in 24-well plates on polylysine coated glass coverslips until 80-90% confluency. The cells were incubated with Cerepep or control insertless peptide-phage at a final concentration of 5×10^7 pfu in 1 ml of DMEM+BSA (1%) at 4 °C for 1 h on a rocking platform. The wells were washed 4 times with 1 ml of DMEM+BSA (1%), the cells were lysed in 1 ml LB+NP40 and the amount of phage bound to the cells was determined by titering.
(§2) Binding of SRRVISRAKLAAAL (SEQ ID NO:9) phage to a panel of different cell lines was studied in vitro.

In another data set the test system is Neuro2A. The data set can be described thus: In vitro phage binding to cells. Type of data set: cell-based, mouse. The conditions noted are these: 4 °C, 1 h. Here is the method: as §1, §2
A further data set concerns WT GBM. The data set can be described thus: In vitro phage binding to cells. Type of data set: cell-based, mouse. The following applies: 4 °C, 1 h. Here is the method:
as §1, §2

Regarding CVGTNCY, in the data set with rat CNS, the “homing to CNS vs other organs” value is reported as “homes preferentially to the CNS than to other organs”. Also, in the data set with 22 different cell-lines, the “peptide-phage binding on cell lines” value was “minimal binding”. Further, the “binding to Reelin” value in the data set on Reelin was “specific binding”.
For “SRRVISRAKLAAAL [Cerepep, SRRVISRAKLAAAL]”, in the data set with mouse brain (mouse, in vivo), the homing preference entry was “homes preferentially to the eyes/brain/CNS”. In addition, the “accumulation in mouse brain, fold over Angiopep-2 phage” value in the data set with mouse brain (peptide-phage 5×10^9 pfu i.v., 1 h, vs Angiopep-2 phage) is “approximately 300 fold”. Moreover, the “accumulation in mouse brain, fold over control phage” value in the data set with mouse brain (peptide-phage 5×10^9 pfu i.v., 1 h, vs insertless control phage) is “approximately 300 fold”. Besides, the “accumulation in the brain, shorter versions of Pep1” value with mouse brain (peptide-phage 5×10^9 pfu i.v., 1 h circulation) was “shortest peptide still achieving a high accumulation in the brain”. Besides, the “brain selectivity (titer in brain vs control tissues)” value with mouse brain (peptide-phage i.v., 1 h, mice) is “highest accumulation in the brain and low accumulation in all other tested tissues”. In addition, the “accumulation in brain regions and spinal cord” value in the data set on mouse brain (peptide-phage i.v., 1 h, olfactory bulbs, cerebellum, brain stem, hemispheres, spinal cord, compared to control phage) is recorded as “high accumulation in all tested brain regions as well as in the spinal cord”. The “binding of peptide-phage, fold over insertless phage” value with P3 stem cells, in the data set on Neuro2A and in the data set with WT GBM was “at least 50 fold” throughout.
